# From patent US20190002988A1, “METHOD OF USING A RET FUSION GENE AS A BIOMARKER TO SELECT NON SMALL CELL LUNG CANCER (NSCLC) AND THYROID CANCER PATIENTS FOR A CANCER TREATMENT” (Boehringer Ingelheim International GmbH, priority 2015, published 2019)
# Columns and labels:
# [1] = system: EGFR and ALK wild-type advanced NSCLC with CCDC6-RET fusion gene; assay: Phase I case study, docetaxel plus nintedanib in a patient with CCDC6-RET fusion NSCLC; type: in vivo, human; details: one patient
# From the text: The present study is a case study of long-term efficacy of docetaxel plus nintedanib (BIBF 1120; 3-Z-[1-(4-(N-((4-methyl-piperazin-1-yl)-methylcarbonyl)-N-methyl-amino)-anilino)-1-phenyl-methylene]-6-methoxycarbonyl-2-indolinone) over 33 months in a never smoking person with EGFR and ALK wild-type non-small cell lung cancer NSCLC.
# The present case was a never smoking person with EGFR and ALK wild-type advanced NSCLC. After failure of first-line platinum-based chemotherapy, the patient was enrolled in a phase I dose-escalation study of nintedanib combined with docetaxel for Japanese patients with advanced NSCLC on June, 2010, with oral administration of nintedanib 150 mg twice daily plus docetaxel 75 mg/m^2 every 3 weeks (Okamoto I, Kaneda H, Satoh T et al. Phase I safety, pharmacokinetic, and biomarker study of BIBF 1120, an oral triple tyrosine kinase inhibitor in patients with advanced solid tumors. Mol Cancer Ther 2010; 9: 2825-2833.). […] A total of 48 treatment cycles (26 cycles of therapy with nintedanib alone) had been administered over 33 months until disease progression on March, 2013 (FIG. 1). To identify mutations which are highly susceptible to therapy with nintedanib, next-generation sequencing panels were applied that cover both mutational hotspots in 22 genes related to lung and colon tumorigenesis using DNA (FIG. 4) as well as 72 major variants of ALK, RET, ROS1, and NTRK1 fusion transcripts using RNA extracted from non-small lung tissues obtained by transbronchial biopsy (FIG. 5). Multiplex genetic testing has identified CCDC6-RET fusion gene in tissue specimens for lung cancer diagnosis (FIG. 2), and no other actionable mutations were identified.
# [2] = system: xenograft models of human solid tumors; details: Hilberg et al. 2008; cited from earlier work
# tumor vessel density = assay: tumor vessel density; details: in vivo
# [3] = preclinical studies, oral bioavailability; type: in vivo
# [4] = system: platelet-derived growth factor receptors (PDGFRs); assay: preclinical studies, inhibition of PDGFRs; type: biochemical
# advanced NSCLC = details: combination with docetaxel; predefined patients with adenocarcinoma tumor histology; Reck et al. 2014; cited from earlier work
# [5] = system: fibroblast growth factor receptors (FGFRs); assay: preclinical studies, inhibition of FGFRs; type: biochemical
# VEGFR2 = VEGFR2 (Homo sapiens, UniProt P35968); details: in vitro; Hilberg et al. 2008; cited from earlier work
# [6] = system: vascular endothelial growth factor receptors (VEGFRs); assay: preclinical studies, inhibition of VEGFRs; type: biochemical
# [7] = system: endothelial- and smooth muscle cells and pericytes; assay: signalling in endothelial- and smooth muscle cells and pericytes; type: cell-based
# Chain of VEGFR2 (P35968 20-1356, species assumed): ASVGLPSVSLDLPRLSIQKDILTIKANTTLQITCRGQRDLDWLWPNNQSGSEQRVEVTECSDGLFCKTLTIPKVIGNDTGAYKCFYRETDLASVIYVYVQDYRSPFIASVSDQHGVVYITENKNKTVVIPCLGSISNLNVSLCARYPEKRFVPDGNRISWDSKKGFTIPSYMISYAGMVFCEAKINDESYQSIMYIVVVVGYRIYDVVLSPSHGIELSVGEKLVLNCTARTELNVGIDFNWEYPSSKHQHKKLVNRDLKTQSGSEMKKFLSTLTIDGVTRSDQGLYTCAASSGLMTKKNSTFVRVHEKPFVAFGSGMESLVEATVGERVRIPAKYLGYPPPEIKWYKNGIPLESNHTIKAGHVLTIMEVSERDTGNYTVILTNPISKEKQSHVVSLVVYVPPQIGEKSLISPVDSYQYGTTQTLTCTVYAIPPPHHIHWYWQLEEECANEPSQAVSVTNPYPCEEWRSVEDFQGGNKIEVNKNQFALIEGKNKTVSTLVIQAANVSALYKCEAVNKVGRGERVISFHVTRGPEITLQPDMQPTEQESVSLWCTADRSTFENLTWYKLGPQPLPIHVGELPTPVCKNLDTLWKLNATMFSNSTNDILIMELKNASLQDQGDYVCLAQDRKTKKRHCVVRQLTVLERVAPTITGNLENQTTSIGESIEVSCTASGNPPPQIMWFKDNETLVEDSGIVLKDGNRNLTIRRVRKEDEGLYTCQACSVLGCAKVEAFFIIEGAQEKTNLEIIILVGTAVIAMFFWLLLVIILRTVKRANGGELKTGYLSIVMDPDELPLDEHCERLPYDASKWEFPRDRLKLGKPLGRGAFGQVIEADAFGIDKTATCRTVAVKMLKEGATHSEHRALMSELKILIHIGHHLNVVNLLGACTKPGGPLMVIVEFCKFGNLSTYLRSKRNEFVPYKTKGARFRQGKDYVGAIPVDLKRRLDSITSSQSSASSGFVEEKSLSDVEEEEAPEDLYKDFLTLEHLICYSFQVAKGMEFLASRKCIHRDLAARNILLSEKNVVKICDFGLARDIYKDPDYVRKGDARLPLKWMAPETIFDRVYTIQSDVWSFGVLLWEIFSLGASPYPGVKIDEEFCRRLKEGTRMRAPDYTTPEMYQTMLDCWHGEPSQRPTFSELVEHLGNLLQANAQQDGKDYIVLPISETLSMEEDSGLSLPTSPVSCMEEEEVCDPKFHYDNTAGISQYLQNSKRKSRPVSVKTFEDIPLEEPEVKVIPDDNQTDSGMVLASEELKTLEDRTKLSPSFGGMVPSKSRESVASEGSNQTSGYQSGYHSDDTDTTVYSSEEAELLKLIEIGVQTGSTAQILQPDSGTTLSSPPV
SMILES,adverse events leading to discontinuation ([1]; docetaxel discontinued after 22 cycles),tumor growth [2],"treatment time until disease progression ([1]; 48 treatment cycles, 26 of them nintedanib alone after docetaxel was stopped) [months]",response ([1]; nintedanib 150 mg twice daily plus docetaxel 75 mg/m^2 every 3 weeks),tumor vessel density (tumor vessel density),oral bioavailability [3],inhibition of PDGFRs [4],overall survival compared with docetaxel alone (advanced NSCLC),inhibition of FGFRs [5],blockade of VEGFR2 (VEGFR2),inhibition of VEGFRs [6],signalling in endothelial- and smooth muscle cells and pericytes [7]
"CC(=O)O[C@@]12CO[C@@H]1C[C@H](O)[C@@]1(C)C(=O)[C@H](O)C3=C(C)[C@@H](OC(=O)[C@H](O)[C@@H](NC(=O)OC(C)(C)C)c4ccccc4)C[C@@](O)([C@@H](OC(=O)c4ccccc4)[C@H]21)C3(C)C [docetaxel, reference compound]",lower extremity edema and fatigue,–,–,–,–,–,–,–,–,–,–,–
"COC(=O)c1ccc2c(c1)NC(=O)/C2=C(\Nc1ccc(N(C)C(=O)CN2CCN(C)CC2)cc1)c1ccccc1 [nintedanib, 3-Z-[1-(4-(N-((4-methyl-piperazin-1-yl)-methylcarbonyl)-N-methyl-amino)-anilino)-1-phenyl-methylene]-6-methoxycarbonyl-2-indolinone]",–,delay or arrest of tumor growth,33,radiographic response,reduces tumor vessel density,orally bioavailable,highly potent,significantly and clinically meaningful improved overall survival,highly potent,sustained blockade,highly potent,inhibits signalling
